Experimental data published in ChEMBL document CHEMBL1144597, “Synthesis and evaluation of aryl thioxothiazolidinone inhibitors of ADAMTS-5 (Aggrecanase-2)” (Bioorg Med Chem Lett, 2007).

target: T1, A disintegrin and metalloproteinase with thrombospondin motifs 5 (Homo sapiens, UniProt Q9UNA0); assay: Inhibition of ADAMTS5
T1 sequence (Q9UNA0 whole entry): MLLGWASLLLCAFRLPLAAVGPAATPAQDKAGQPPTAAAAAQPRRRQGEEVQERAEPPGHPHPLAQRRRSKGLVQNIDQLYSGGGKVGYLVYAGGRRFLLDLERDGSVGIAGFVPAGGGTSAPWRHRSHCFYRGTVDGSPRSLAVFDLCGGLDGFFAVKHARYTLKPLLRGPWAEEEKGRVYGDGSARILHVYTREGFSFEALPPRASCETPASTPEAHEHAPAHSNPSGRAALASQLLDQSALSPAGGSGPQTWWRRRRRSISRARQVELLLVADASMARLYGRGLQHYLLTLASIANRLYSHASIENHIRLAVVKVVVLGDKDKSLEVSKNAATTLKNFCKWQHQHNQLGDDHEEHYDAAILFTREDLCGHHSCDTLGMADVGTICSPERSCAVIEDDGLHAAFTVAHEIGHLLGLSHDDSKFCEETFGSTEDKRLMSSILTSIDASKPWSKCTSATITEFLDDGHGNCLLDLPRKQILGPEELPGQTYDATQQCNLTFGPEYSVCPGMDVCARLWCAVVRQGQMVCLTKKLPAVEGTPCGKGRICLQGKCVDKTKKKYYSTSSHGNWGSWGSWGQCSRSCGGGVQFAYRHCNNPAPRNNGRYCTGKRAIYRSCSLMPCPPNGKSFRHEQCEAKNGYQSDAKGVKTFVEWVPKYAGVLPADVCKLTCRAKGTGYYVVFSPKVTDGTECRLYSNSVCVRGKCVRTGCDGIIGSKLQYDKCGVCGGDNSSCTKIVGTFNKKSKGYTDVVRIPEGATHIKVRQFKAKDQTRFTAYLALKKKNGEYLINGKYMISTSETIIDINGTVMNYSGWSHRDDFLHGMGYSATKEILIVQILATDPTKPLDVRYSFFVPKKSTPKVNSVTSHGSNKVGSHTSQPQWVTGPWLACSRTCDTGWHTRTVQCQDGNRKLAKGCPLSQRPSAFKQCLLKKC

SMILES	IC50
O=C1/C(=C\c2ccc(OCc3ccccc3)c(OCc3ccccc3)c2)SC(=S)N1Cc1ccccc1	> 67 µM
O=C1NC(=S)S/C1=C/c1cccc(OCc2ccccc2)c1	20.1 µM
O=C1NC(=S)S/C1=C/c1ccc(OCc2ccccc2)c(OCc2ccccc2)c1	1.8 µM
O=C1NC(=S)S/C1=C/c1cc(OCc2ccccc2)cc(OCc2ccccc2)c1	1.4 µM
COc1cc(/C=C2/SC(=S)NC2=O)ccc1OCc1ccccc1	> 22 µM
COc1ccc(COc2ccc(/C=C3/SC(=S)NC3=O)cc2OC)cc1	11.6 µM
O=C1NC(=S)S/C1=C/c1cccc(Oc2ccccc2)c1	> 22 µM
O=C1NC(=S)S/C1=C/c1cccc(Oc2ccc(Cl)cc2)c1	4.9 µM
Cc1ccc(Oc2cccc(/C=C3/SC(=S)NC3=O)c2)cc1	14.8 µM
CC(C)(C)c1ccc(Oc2cccc(/C=C3/SC(=S)NC3=O)c2)cc1	1.7 µM
O=C(O)CCN1C(=O)/C(=C\c2ccc(OCc3ccccc3)c(OCc3ccccc3)c2)SC1=S	5.3 µM
O=C1NC(=S)S/C1=C/c1cccc(Oc2cc(Cl)cc(Cl)c2)c1	2.5 µM
O=C1NC(=O)/C(=C\c2cccc(Oc3ccc(Cl)cc3)c2)S1	> 22 µM
O=C1NC(=O)/C(=C\c2cccc(Oc3ccc(Cl)c(Cl)c3)c2)S1	10 µM
O=C1NC(=O)/C(=C\c2cccc(Oc3cc(Cl)cc(Cl)c3)c2)S1	9.2 µM
O=C1/C(=C\c2ccc(OCc3ccccc3)c(OCc3ccccc3)c2)SC(=S)N1CCc1ccccc1	> 67 µM
CC(C)[C@H](C(=O)O)N1C(=O)/C(=C\c2ccc(OCc3ccccc3)c(OCc3ccccc3)c2)SC1=S	1.1 µM
O=C(O)CN1C(=O)/C(=C\c2cccc(Oc3ccc(Cl)c(Cl)c3)c2)SC1=S	11.1 µM

SMILES	IC50
O=C1NC(=O)/C(=C\c2cccc(Oc3ccc(Cl)cc3)c2)N1	> 67 µM
O=C1NC(=O)/C(=C\c2cccc(Oc3cc(Cl)cc(Cl)c3)c2)N1	> 67 µM
CC(C)(C)c1ccc(Oc2cccc(/C=C3/NC(=O)NC3=O)c2)cc1	> 67 µM
CN1C(=O)NC(=O)/C1=C\c1cccc(Oc2ccc(Cl)cc2)c1	> 22 µM
O=C(O)[C@@H](Cc1ccccc1)N1C(=O)/C(=C\c2ccc(OCc3ccccc3)c(OCc3ccccc3)c2)SC1=S	1.3 µM
O=C(O)C(c1ccccc1)N1C(=O)/C(=C\c2cccc(Oc3ccc(Cl)c(Cl)c3)c2)SC1=S (stereo unspecified)	1.3 µM
O=C(O)[C@@H](Cc1ccccc1)N1C(=O)/C(=C\c2cccc(Oc3ccc(Cl)c(Cl)c3)c2)SC1=S	1.6 µM
O=C(O)C(c1ccccc1)N1C(=O)/C(=C\c2ccc(OCc3ccccc3)c(OCc3ccccc3)c2)SC1=S (stereo unspecified)	0.9 µM
COc1cc(/C=C2/SC(=S)NC2=O)ccc1OCc1ccc(Cl)cc1	3.5 µM
COc1ccc(Oc2cccc(/C=C3/SC(=S)NC3=O)c2)cc1	16.2 µM
CC(C)[C@H](C(=O)O)N1C(=O)/C(=C\c2cccc(Oc3ccc(Cl)c(Cl)c3)c2)SC1=S	1.8 µM
O=C1NC(=S)S/C1=C/c1cccc(Oc2ccc(Cl)c(Cl)c2)c1	3.2 µM
O=C1NC(=S)S/C1=C/c1cccc(Oc2ccc(C(F)(F)F)cc2)c1	5.3 µM
O=C(O)CN1C(=O)/C(=C\c2ccc(OCc3ccccc3)c(OCc3ccccc3)c2)SC1=S	6.7 µM
O=C1/C(=C\c2ccc(OCc3ccccc3)c(OCc3ccccc3)c2)SC(=S)N1c1ccccc1	> 67 µM
CC(C)(C)c1ccc(Oc2cccc(/C=C3/SC(=O)NC3=O)c2)cc1	6.8 µM
CN1C(=O)/C(=C\c2ccc(OCc3ccccc3)c(OCc3ccccc3)c2)SC1=S	> 67 µM
CCN1C(=O)/C(=C\c2ccc(OCc3ccccc3)c(OCc3ccccc3)c2)SC1=S	> 67 µM
